Consider four compounds from ChEMBL document CHEMBL1201862, “PubChem BioAssay data set” (2004).

What all share (assay): NCI-60 cell line screen, 48 h
Experiment [1] has as its system LOX IMVI.
For experiment [2], the system named is K562.
Experiment [3] deals with HL-60.
In experiment [4] the test system is HT-29.
The test system of experiment [5] is MOLT-4.
Experiment [6] relates to UACC-62.
Experiment [7] concerns RXF 393.
Experiment [8] has as its system SK-MEL-2.
Experiment [9] concerns HOP-62.
The test system of experiment [10] is SF-295.
Experiment [11] concerns HOP-92.
In experiment [12] the test system is UACC-257.
In experiment [13] the test system is SW-620.
Experiment [14] concerns HCT-116.
In experiment [15] the test system is HCC 2998.
In experiment [16] the test system is EKVX.
For experiment [17], the system named is CCRF-CEM.
Experiment [18] relates to NCI-H460.
Experiment [19] relates to OVCAR-8.
Experiment [20] deals with MCF7.

Several values for one entry are separate records, joined by “and”; a condition that tells them apart may be missing. Equal entries are not always repeated.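 These data come from cells grown in 96-well plates and exposed to compound for 48 hours at five concentrations. At the GI50, growth is halved.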 Activity calls are given as the source filed them. Rule as the data show it: active = GI50 up to about 1.1 µM and inactive = higher.

In the case of `Cc1ccc(NC(=O)CC/C(CC(=O)C(C)(C)C)=N/NC(=O)c2cc3ccccc3cc2O)cc1C`, the GI50 in [1] is 20.3 µM (inactive); in experiment [2], > 10 µM (inactive); in [3], 20.4 µM (inactive); in [4] it was 41.7 µM (inactive); in experiment [5], 17.7 µM (inactive); in experiment [6], 24.5 µM (inactive). The GI50 is 35.2 µM (inactive) in experiment [7]; 32.4 µM (inactive) in experiment [8]; 36.8 µM (inactive) in experiment [9]; 17.9 µM (inactive) in [10]; 47.6 µM (inactive) in [11]; 38.1 µM (inactive) in experiment [12]. Besides, the GI50 in experiment [13] is 48 µM (inactive); in experiment [14], 40.3 µM (inactive); in experiment [15], 29.2 µM (inactive); in experiment [16], 36.5 µM (inactive); in [17] it was 16.2 µM (inactive); in experiment [18] it was 39.4 µM (inactive). In addition, in [19], the GI50 is 26.8 µM (inactive).
For `CCCCCCCCCCSCC(CO)NC(=O)/C=C/c1c(C)[nH]c(=O)[nH]c1=O` (centres undefined), the GI50 in experiment [1] was 1.29 µM (inactive) and 1.42 µM (inactive); in experiment [20] it was 753 nM (active) and 1.17 µM (inactive); in [2], 908 nM (active) and 1.12 µM (inactive); in [3], 1.82 µM (inactive) and 1.42 µM (inactive); in experiment [4], 4.02 µM (inactive) and 7.43 µM (inactive); in experiment [5], 1.22 µM (inactive) and 1.44 µM (inactive). Besides, the GI50 is 1.03 µM (active) and 1.17 µM (inactive) in experiment [6]; 1.36 µM (inactive) and 2.69 µM (inactive) in [7]; 1.25 µM (inactive) and 804 nM (active) in experiment [8]; 2.03 µM (inactive) and 3.24 µM (inactive) in experiment [9]; 29.1 µM (inactive) and 17.9 µM (inactive) in experiment [10]; 1.54 µM (inactive) and 820 nM (active) in experiment [11]. In addition, the GI50 in experiment [13] is 1.61 µM (inactive) and 1.51 µM (inactive); in experiment [14] it was 1.26 µM (inactive) and 1.29 µM (inactive); in experiment [15], 1.08 µM (active) and 1.17 µM (inactive); in experiment [16], 3.93 µM (inactive) and 2.01 µM (inactive); in experiment [17], 259 nM (active) and 258 nM (active); in experiment [18] it was 1.51 µM (inactive) and 1.76 µM (inactive). Also, the GI50 in [19] is 1.04 µM (active) and 1.09 µM (active).
`COc1cccc(N2C(=O)CSC2c2c[nH]c3ccccc23)c1` (centres undefined): the GI50 in [1], in [20], in experiment [2], in [3], in experiment [4] and in experiment [5] was > 100 µM (inactive) each time. The GI50 in [6] is > 100 µM (inactive); in experiment [7] it was > 100 µM (inactive); in experiment [9], > 100 µM (inactive); in experiment [10] it was > 100 µM (inactive); in experiment [11], 66.1 µM (inactive); in experiment [12], > 100 µM (inactive). For the same compound, the GI50 in experiment [13], in [14], in experiment [15], in [16], in experiment [17] and in [18] was > 100 µM (inactive) throughout. Besides, the GI50 in experiment [19] was > 100 µM (inactive).
In the case of `COc1ccc(C2=N/C(=C\c3ccccc3)C(=O)O2)cc1`, the GI50 in experiment [20] was > 100 µM (inactive); in experiment [2] it was 34 µM (inactive); in [3], 12.2 µM (inactive); in experiment [4], > 100 µM (inactive); in experiment [5] it was 13.3 µM (inactive); in [7], > 100 µM (inactive). Further, the GI50 was > 100 µM (inactive) in [8]; 38.7 µM (inactive) in [9]; > 100 µM (inactive) in [10]; > 100 µM (inactive) in experiment [11]; > 100 µM (inactive) in experiment [12]; > 100 µM (inactive) in experiment [13]. Besides, the GI50 was 75.9 µM (inactive) in [15]; > 100 µM (inactive) in experiment [16]; 31 µM (inactive) in [17]; > 100 µM (inactive) in experiment [18]; 30.8 µM (inactive) in experiment [19].
